Source: patent US20240398817A1, “CARDIO- AND RENOSAFE ANTIDIABETIC THERAPY” (priority 2018, published 2024)

Tested on: patients with type 2 diabetes at high vascular risk
Experiment: Cardiovascular and Renal Outcomes Trial: linagliptin 5 mg once daily vs placebo on top of standard of care
Type: in vivo
Method: The effect of linagliptin on cardiovascular risk in adult patients with type 2 diabetes mellitus and with increased CV risk evidenced by a history of established macrovascular or renal disease (e.g. as defined herein) was evaluated in a multi-center, multi-national, randomized, double-blind parallel group trial. The trial compared the risk of experiencing a major adverse cardiovascular event (MACE) between linagliptin and placebo when these were added to and used concomitantly with standard of care treatments for diabetes (HbA1c), cardiovascular risk factors and renal disease.
The primary endpoint in this trial was the time to first occurrence of three point (3P) MACE. A major adverse cardiac event was defined as a cardiovascular death or a nonfatal myocardial infarction (MI) or a nonfatal stroke. The statistical analysis plan tested for non-inferiority for the occurrence of (3P) MACE. […] The secondary endpoint was a renal composite, defined as renal death or sustained end stage renal disease or sustained decrease of 40% or more in eGFR.
Type 2 diabetes patient with insufficient glycemic control (naïve or pre-treated with any antidiabetic background medication, excluding treatment with GLP-1 receptor agonists, DPP-4inhibitors or SGLT-2 inhibitors if ≥consecutive 7 days, e.g. having HbA1c 6.5-10%), and high risk of cardiovascular events, e.g. defined by: • albuminuria (micro or macro) and previous macrovascular disease: e.g. defined according to Condition I as indicated below; • and/or • impaired renal function: e.g. as defined according to Condition II as indicated below;
Background and aims: People with type 2 diabetes (T2D) are at increased risk for hospitalization for heart failure (hHF), particularly in the setting of concomitant cardiovascular (CV) and/or kidney disease. […] Here we present analyses of HF outcomes with the DPP-4 inhibitor linagliptin (LINA) vs. placebo (PBO) from a Cardiovascular and Renal Outcomes Trial assessing cardiovascular safety and renal microvascular outcome in patients with type 2 diabetes at high vascular risk, a large CV outcomes trial that enrolled participants with T2D at high risk for hHF due to concomitant CV and/or chronic kidney disease. Materials and methods: People with T2D and concomitant CV and/or kidney disease were randomized to receive LINA 5 mg, or PBO once daily (1:1), on top of standard of care. All hHF, CV outcomes, and deaths were centrally adjudicated, with individual and composite HF-related outcomes analyses comparing LINA vs. placebo. Investigator-reported HF-related adverse events, whether or not confirmed by adjudication, were also analyzed. A Cox proportional hazards model adjusting for region and history of HF was used for analyses of first events. Recurrent hHF events were analyzed using a negative binomial model.
Methods: The present Cardiovascular and Renal Outcomes Trial randomized people with T2D and i) concomitant CV disease with UACR >30 mg/g or ii) prevalent CKD (i.e. GFR <45 ml/min/1.73m2 and/or UACR >200 mg/g) to receive the DPP-4 inhibitor linagliptin (5 mg) or placebo once daily in a double-blind fashion. The primary CV endpoint was 3P-MACE, with a key secondary kidney endpoint (adjudicated ESKD, renal death, or sustained ≥40% decrease in eGFR from baseline) and other renal outcomes (including albuminuria and eGFR slope) also assessed. Subgroups were assessed by baseline kidney function (eGFR ≥/<45 ml/min/1.73m2and eGFR ≥/<30, 45 or 60 ml/min/1.73m2).
Adults with type 2 diabetes, HbA1c 6.5-10.0% inclusive, and high CV risk were eligible for inclusion. […] Macrovascular disease eligibility criteria was based on documented and confirmed history of myocardial infarction, coronary artery disease, stroke, carotid artery disease, or peripheral artery disease. Participants with end-stage kidney disease (ESKD), defined as eGFR <15 or requiring maintenance dialysis, were excluded.

[1] = eGFR ≥45 to <60 mL/min/1.73 m^2

CC#CCn1c(N2CCC[C@@H](N)C2)nc2c1c(=O)n(Cc1nc(C)c3ccccc3n1)c(=O)n2C [Linagliptin, 1-[(4-methyl-quinazolin-2-yl)methyl]-3-methyl-7-(2-butyn-1-yl)-8-(3-(R)-amino-piperidin-1-yl)-xanthine]
Renal death, sustained ESKD, or ≥ doubling of se-creatinine: n (eGFR ≥ 45 (n = 3979)): 54
Renal death, sustained ESKD, or ≥ doubling of se-creatinine: rate/100 patient-years (eGFR ≥ 45 (n = 3979)): 1.38 per 100 patient-years
3-point MACE: hazard ratio vs placebo [1]: 1.12
3-point MACE: patients with event/patients analyzed [1]: 81/690
Key secondary kidney outcome: hazard ratio vs placebo [1]: 0.94
Key secondary kidney outcome: patients with event/patients analyzed [1]: 51/690
3-point MACE: hazard ratio vs placebo (eGFR ≥60 mL/min/1.73 m^2): 0.96
3-point MACE: patients with event/patients analyzed (eGFR ≥60 mL/min/1.73 m^2): 103/1294
Key secondary kidney outcome: hazard ratio vs placebo (eGFR ≥60 mL/min/1.73 m^2): 1.46
Key secondary kidney outcome: patients with event/patients analyzed (eGFR ≥60 mL/min/1.73 m^2): 54/1294
Non-fatal MI as component of 3-point MACE primary outcome: % (first event of composite): (4.4) %
Non-fatal MI as component of 3-point MACE primary outcome: no. (first event of composite): 154
Non-fatal stroke as component of 3-point MACE primary outcome: % (first event of composite): (1.7) %
Non-fatal stroke as component of 3-point MACE primary outcome: no. (first event of composite): 59
4-point MACE (3-point MACE or hospitalization for unstable angina): no. (in vivo): 463
4-point MACE: % (in vivo): (13.3) %
4-point MACE: hazard ratio vs placebo (in vivo): 1.00
4-point MACE: rate/1000 patient-years (in vivo): 62.0 per 1000 patient years
Acute pancreatitis, adjudication confirmed: % (in vivo): 0.3%
Acute pancreatitis, adjudication confirmed: N (in vivo): 9^1
Adverse events leading to discontinuation: % (in vivo): 10.3%
Adverse events leading to discontinuation: N (in vivo): 359
Albuminuria progression: rate/100 patient-years (in vivo): 21.36 per 100 patient-years
Albuminuria progression: rate/1000 patient-years (in vivo): 213.6 per 1000 patient years
All cancers (malignancies): % (in vivo): 3.3%
All cancers (malignancies): N (in vivo): 116
Angioedema events with concomitant ACE/ARB use at baseline: % (in vivo): 0.45%
Angioedema events with concomitant ACE/ARB use at baseline: N (in vivo): 13
Any adverse events: % (in vivo): 77.2%
Changes in body weight or waist circumference vs placebo, in words (in vivo): No clinically meaningful differences
Changes in weight, systolic and diastolic blood pressure and LDL/HDL cholesterol vs placebo, in words (in vivo): no different between groups
Chronic pancreatitis, adjudication confirmed: % (in vivo): 0.1%
Chronic pancreatitis, adjudication confirmed: N (in vivo): 2
Colon cancer: % (in vivo): 0.2%
Colon cancer: N (in vivo): 6
Composite microvascular endpoint (renal and eye outcomes): number of patients (in vivo): 785
Composite microvascular endpoint: hazard ratio (95% CI) vs placebo (in vivo): 0.86
Composite microvascular endpoint: rate/1000 patient-years (in vivo): 221.4 per 1000 patient years
Composite ocular endpoint: hazard ratio vs placebo (in vivo): 0.73
Composite ocular endpoint: number of patients (in vivo): 36
Composite ocular endpoint: rate/1000 patient-years (in vivo): 4.7 per 1000 patient years
Composite renal endpoint 2 (50% eGFR) and composite renal endpoint 3 (30% eGFR with eGFR <60) vs placebo, in words (in vivo): No significant difference
Confirmed hypoglycemic adverse events with plasma glucose <54 mg/dl or severe event: % (in vivo): 15.9%
Confirmed hypoglycemic adverse events with plasma glucose <54 mg/dl or severe event: N (in vivo): 557
Contributing to composite microvascular outcome: patients with retinal laser coagulation or anti-VEGF injection for diabetic retinopathy, % (in vivo): 0.2%
Contributing to composite microvascular outcome: patients with sustained >50% eGFR decrease, % (in vivo): 0.6%
Contributing to composite microvascular outcome: patients with sustained ESKD, % (in vivo): 0.3%
Contributing to composite microvascular outcome: patients with vitreous haemorrhage, % (in vivo): 0.1%
Contributing to composite ocular outcome: patients with anti-VEGF injection for diabetic retinopathy, % (in vivo): 0.3%
Contributing to composite ocular outcome: patients with diabetes related blindness, % (in vivo): 0.1%
Contributing to composite ocular outcome: patients with retinal laser coagulation, % (in vivo): 0.2%
Contributing to composite ocular outcome: patients with vitreous haemorrhage, % (in vivo): 0.5%
Coronary revascularization procedure: % (in vivo): (4.6) %
Coronary revascularization procedure: hazard ratio vs placebo (in vivo): 1.07
Coronary revascularization procedure: no. (in vivo): 160
Coronary revascularization procedure: rate/1000 patient-years (in vivo): 21.2 per 1000 patient years
Difference between treatment groups in HbA1c changes from baseline over time, in words (in vivo): significant up to the Week 132 visit
Fasting plasma glucose (FPG) vs placebo, in words (in vivo): significant differences observed between the treatment groups up to Week 84
Fatal myocardial infarction: % (in vivo): (0.3) %
Fatal myocardial infarction: hazard ratio vs placebo (in vivo): 0.78
Fatal myocardial infarction: no. (in vivo): 11
Fatal myocardial infarction: rate/1000 patient-years (in vivo): 1.4 per 1000 patient years
Fatal or non-fatal myocardial infarction: % (in vivo): (4.7) %
Fatal or non-fatal myocardial infarction: hazard ratio vs placebo (in vivo): 1.12
Fatal or non-fatal myocardial infarction: no. (in vivo): 165
Fatal or non-fatal myocardial infarction: rate/1000 patient-years (in vivo): 21.8 per 1000 patient years
Fatal or non-fatal stroke: % (in vivo): (2.3) %
Fatal or non-fatal stroke: hazard ratio vs placebo (in vivo): 0.91
Fatal or non-fatal stroke: no. (in vivo): 81
Fatal or non-fatal stroke: rate/1000 patient-years (in vivo): 10.6 per 1000 patient years
Fatal stroke: % (in vivo): (0.5) %
Fatal stroke: hazard ratio vs placebo (in vivo): 1.05
Fatal stroke: no. (in vivo): 17
Fatal stroke: rate/1000 patient-years (in vivo): 2.2 per 1000 patient years
Gastric cancer: % (in vivo): 0.0%
Gastric cancer: N (in vivo): 0
Hospitalization for heart failure or cardiovascular death: % (in vivo): (11.6) %
Hospitalization for heart failure or cardiovascular death: hazard ratio vs placebo (in vivo): 0.94
Hospitalization for heart failure or cardiovascular death: no. (in vivo): 406
Hospitalization for heart failure or cardiovascular death: rate per 100 person-years (in vivo): 5.37 per 100 person-years
Hospitalization for heart failure or cardiovascular death: rate/1000 patient-years (in vivo): 53.7 per 1000 patient years
Hospitalization for unstable angina: % (in vivo): (1.2) %
Hospitalization for unstable angina: hazard ratio vs placebo (in vivo): 0.87
Hospitalization for unstable angina: no. (in vivo): 42
